This series deals with cabbage moth (Plutella xylostella). As to the kind of experiment: Cabbage moth mortality test on sprayed cabbage seedling (Test method 23). Type of series: in vivo. To be noted: 500 ppm, 20 mL/seedling sprayed on cabbage; 5 second instar larvae; after 5 days. The method, then:
The present compound is made to a formulation according to a similar method to that described in the Formulation Example 6, and thereto is added water containing 0.03 v/v % of a spreader to prepare a diluted solution containing a prescribed concentration of the test compound.
Cabbage (Brassicae oleracea) seedling (on the developmental stage of the second to third true leaf) is planted in a cup, and the diluted solutions are sprayed into the seedling at a ratio of 20 mL/seedling. Thereafter, the stem and leaf of the seedling is cut out and is then installed into the container that is covered with the filter paper. Five (5) cabbage moth (Plutella xylostella) at the second instar larval stages are released into the cup. After 5 days, the surviving insects are counted, and the mortality of insects is calculated by the following equation. Mortality (%)={1−the number of the surviving insects/5}×100

This passage reports mortality results from US12082581B2, “Acrylate derivative, use and production intermediate compound of the same” (SUMITOMO CHEMICAL COMPANY, LIMITED, priority 2019, dated 2024).

Molecules are shown by their SMILES.

Broadly, the mortality is the share of the test organisms that died. Lower therefore signals a weak lethal effect. `COC=C(Cc1cc(OCc2ccccc2)ccc1C)C(=O)OC` [compound 28] had a mortality of 100%.
